What was measured:
Type in all cases: in vivo
Echinochloa crus-galli [1] = test: Pre-emergence herbicide efficacy at 320 g/ha, ECHCG; conditions: scored visually after about 3 weeks vs untreated controls, 100% = plants have died
How it was run: (§1)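 Visual percent activity versus untreated controls, read about 3 weeks after treatment, where 100% means dead plants and 0% means control-like growth. Compound (WP or EC, 0.5% additive, 600 L/ha water) was sprayed onto the covering soil over freshly sown weed seeds in sandy loam, then kept in a greenhouse.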

Digitaria sanguinalis [2] = test: Post-emergence herbicidal efficacy at 320 g/ha, DIGSA; conditions: rated visually after about 3 weeks vs untreated controls, 100% = plants have died
How it was run: (§2)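 Effects are visual ratings taken about three weeks after foliar application, scaled from 0% (as untreated control) to 100% (plants died). Application was at the one-leaf stage in greenhouse-grown pots.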

Poa annua [3] = test: Post-emergence herbicidal efficacy at 320 g/ha, POAAN; conditions: rated visually after about 3 weeks vs untreated controls, 100% = plants have died
How it was run: as §2

Viola tricolor [4] = test: Post-emergence herbicidal efficacy at 80 g/ha, VIOTR; conditions: rated visually after about 3 weeks vs untreated controls, 100% = plants have died
Excerpt: (§3) Unwanted plants/weeds: • ABUTH: Abutilon theophrasti • ALOMY: Alopecurus myosuroides • AMARE: Amaranthus retroflexus • DIGSA: Digitaria sanguinalis • ECHCG: Echinochloa crus-galli • KCHSC: Kochia scoparia • LOLRI: Lolium rigidum • MATIN: Matricaria inodora • POAAN: Poa annua • POLCO: Polygonum convolvulus • SETVI: Setaria viridis • STEME: Stellaria media • VERPE: Veronica persica • VIOTR: Viola tricolor A. Post-Emergence Herbicidal Efficacy at 320 g/ha
(§4) Seeds of monocotyledonous and dicotyledonous weeds and crop plants were placed in sandy loam in plastic or organic planting pots, covered with soil and cultivated in a greenhouse under controlled growth conditions. 2 to 3 weeks after sowing, the test plants were treated at the one-leaf stage. The compounds of the invention, formulated in the form of wettable powders (WP) or as emulsion concentrates (EC), were then sprayed onto the green parts of the plants as aqueous suspension or emulsion with addition of 0.5% additive at a water application rate of 600 l/ha (converted). After the test plants had been kept in the greenhouse under optimum growth conditions for about 3 weeks, the activity of the preparations was rated visually in comparison to untreated controls. For example, 100% activity=the plants have died, 0% activity=like control plants.
(§5) Tables B1 to B11 below show the effects of selected compounds of the general formula (I) according to Table 1 on various harmful plants and an application rate corresponding to 80 g/ha, which were obtained by the experimental procedure mentioned above.

Amaranthus retroflexus [5] = test: Post-emergence herbicidal efficacy at 80 g/ha, AMARE; conditions: rated visually after about 3 weeks vs untreated controls, 100% = plants have died
How it was run: (§6)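 Visual damage ratings, 0% (like untreated controls) to 100% (plants dead), were taken about 3 weeks after treatment. Plants were sprayed at the one-leaf stage with WP- or EC-formulated compound in water containing 0.5% additive, 600 l/ha, having been raised in sandy loam in the greenhouse.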

Viola tricolor [6] = test: Pre-emergence herbicide efficacy at 80 g/ha, VIOTR
How it was run: (§7)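 Pre-emergence soil-surface spray over freshly sown, soil-covered seeds; WP/EC formulation, 0.5% additive, 600 l/ha water volume. Greenhouse, ~3 wk. Readout: visual % efficacy vs untreated (0% = control-like, 100% = dead).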

Veronica persica [7] = test: Pre-emergence herbicide efficacy at 80 g/ha, VERPE
Excerpt: as §3
(§8) Seeds of monocotyledonous and dicotyledonous weed plants and crop plants were placed in plastic or organic planting pots and covered with soil. The compounds of the invention, formulated in the form of wettable powders (WP) or as emulsion concentrates (EC), were then applied to the surface of the covering soil as aqueous suspension or emulsion with addition of 0.5% additive at a water application rate equivalent to 600 l/ha. After the treatment, the pots were placed in a greenhouse and kept under good growth conditions for the test plants. After about 3 weeks, the efficacy of the preparations was scored visually in comparison with untreated controls as percentages. For example, 100% activity=the plants have died, 0% activity=like control plants.
(§9) Tables D1 to D12 below show the effects of selected compounds of the general formula (I) according to Table 1 on various harmful plants and an application rate corresponding to 80 g/ha, which were obtained by the experimental procedure mentioned above.

Setaria viridis [8] = test: Post-emergence herbicidal efficacy at 320 g/ha, SETVI; conditions: rated visually after about 3 weeks vs untreated controls, 100% = plants have died
How it was run: as §2

Matricaria inodora = test: Pre-emergence herbicide efficacy at 320 g/ha, MATIN; conditions: scored visually after about 3 weeks vs untreated controls, 100% = plants have died
How it was run: as §1

Poa annua [9] = test: Pre-emergence herbicide efficacy at 320 g/ha, POAAN; conditions: scored visually after about 3 weeks vs untreated controls, 100% = plants have died
How it was run: as §1

Amaranthus retroflexus [10] = test: Pre-emergence herbicide efficacy at 80 g/ha, AMARE; conditions: scored visually after about 3 weeks vs untreated controls, 100% = plants have died
How it was run: as §7

Abutilon theophrasti [11] = test: Pre-emergence herbicide efficacy at 320 g/ha, ABUTH; conditions: scored visually after about 3 weeks vs untreated controls, 100% = plants have died
How it was run: as §1

Veronica persica [12] = test: Pre-emergence herbicide efficacy at 320 g/ha, VERPE; conditions: scored visually after about 3 weeks vs untreated controls, 100% = plants have died
How it was run: as §1

Kochia scoparia [13] = test: Post-emergence herbicidal efficacy at 320 g/ha, KCHSC; conditions: rated visually after about 3 weeks vs untreated controls, 100% = plants have died
How it was run: as §2

Abutilon theophrasti [14] = test: Pre-emergence herbicide efficacy at 80 g/ha, ABUTH; conditions: scored visually after about 3 weeks vs untreated controls, 100% = plants have died
Excerpt: as §3, §8, §9

Alopecurus myosuroides [15] = test: Post-emergence herbicidal efficacy at 80 g/ha, ALOMY; conditions: rated visually after about 3 weeks vs untreated controls, 100% = plants have died
Excerpt: as §3, §4, §5

Setaria viridis [16] = test: Pre-emergence herbicide efficacy at 320 g/ha, SETVI; conditions: scored visually after about 3 weeks vs untreated controls, 100% = plants have died
How it was run: as §1

Echinochloa crus-galli [17] = test: Post-emergence herbicidal efficacy at 320 g/ha, ECHCG; conditions: rated visually after about 3 weeks vs untreated controls, 100% = plants have died
How it was run: as §2

Setaria viridis [18] = test: Pre-emergence herbicide efficacy at 80 g/ha, SETVI
How it was run: as §7

Alopecurus myosuroides [19] = test: Pre-emergence herbicide efficacy at 320 g/ha, ALOMY; conditions: scored visually after about 3 weeks vs untreated controls, 100% = plants have died
Excerpt: as §3
Seeds of mono- and dicotyledonous weed plants were placed in plastic pots in sandy loam soil (doubly sown with one species each of mono- or dicotyledonous weed plants per pot) and covered with soil. The compounds of the invention, formulated in the form of wettable powders (WP) or as emulsion concentrates (EC), were then applied to the surface of the covering soil as aqueous suspension or emulsion with addition of 0.5% additive at a water application rate of 600 litres per hectare (converted). After the treatment, the pots were placed in a greenhouse and kept under good growth conditions for the test plants. After about 3 weeks, the efficacy of the preparations was scored visually in comparison with untreated controls as percentages.
(§10) For example, 100% activity=the plants have died, 0% activity=like control plants.
Tables C1 to C12 below show the effects of selected compounds of the general formula (I) according to Table 1 on various harmful plants and at an application rate corresponding to 320 g/ha, which were obtained by the trial procedure specified above.

Digitaria sanguinalis [20] = test: Post-emergence herbicidal efficacy at 80 g/ha, DIGSA; conditions: rated visually after about 3 weeks vs untreated controls, 100% = plants have died
Excerpt: as §3, §4, §5

Alopecurus myosuroides [21] = test: Pre-emergence herbicide efficacy at 80 g/ha, ALOMY; conditions: scored visually after about 3 weeks vs untreated controls, 100% = plants have died
Excerpt: as §3, §8, §9

Alopecurus myosuroides [22] = test: Post-emergence herbicidal efficacy at 320 g/ha, ALOMY; conditions: rated visually after about 3 weeks vs untreated controls, 100% = plants have died
Excerpt: as §3
Seeds of mono- and dicotyledonous weed plants were placed in plastic pots in sandy loam soil (doubly sown with in each case one species of mono- or dicotyledonous weed plants per pot), covered with soil and cultivated in a greenhouse under controlled growth conditions. 2 to 3 weeks after sowing, the test plants were treated at the one-leaf stage. The compounds of the invention, formulated in the form of wettable powders (WP) or as emulsion concentrates (EC), were applied to the green parts of the plants as aqueous suspension or emulsion with addition of 0.5% additive at a water application rate equivalent to 600 litres per hectare. After the test plants had been kept in the greenhouse under optimum growth conditions for about 3 weeks, the activity of the preparations was rated visually in comparison to untreated controls.
as §10
Tables A1 to A10 below show the effects of selected compounds of the general formula (I) according to Table 1 on various harmful plants and at an application rate corresponding to 320 g/ha, which were obtained by the trial procedure specified above.

Veronica persica [23] = test: Post-emergence herbicidal efficacy at 80 g/ha, VERPE; conditions: rated visually after about 3 weeks vs untreated controls, 100% = plants have died
How it was run: as §6

Polygonum convolvulus = test: Pre-emergence herbicide efficacy at 80 g/ha, POLCO; conditions: scored visually after about 3 weeks vs untreated controls, 100% = plants have died
Excerpt: as §3, §8, §9

Kochia scoparia [24] = test: Pre-emergence herbicide efficacy at 320 g/ha, KCHSC; conditions: scored visually after about 3 weeks vs untreated controls, 100% = plants have died
How it was run: as §1

Echinochloa crus-galli [25] = test: Pre-emergence herbicide efficacy at 80 g/ha, ECHCG; conditions: scored visually after about 3 weeks vs untreated controls, 100% = plants have died
Excerpt: as §3, §8, §9

Amaranthus retroflexus [26] = test: Pre-emergence herbicide efficacy at 320 g/ha, AMARE; conditions: scored visually after about 3 weeks vs untreated controls, 100% = plants have died
How it was run: as §1

Digitaria sanguinalis [27] = test: Pre-emergence herbicide efficacy at 320 g/ha, DIGSA; conditions: scored visually after about 3 weeks vs untreated controls, 100% = plants have died
How it was run: as §1

Digitaria sanguinalis [28] = test: Pre-emergence herbicide efficacy at 80 g/ha, DIGSA; conditions: scored visually after about 3 weeks vs untreated controls, 100% = plants have died
How it was run: as §7

Stellaria media [29] = test: Pre-emergence herbicide efficacy at 320 g/ha, STEME; conditions: scored visually after about 3 weeks vs untreated controls, 100% = plants have died
How it was run: as §1

Amaranthus retroflexus [30] = test: Post-emergence herbicidal efficacy at 320 g/ha, AMARE; conditions: rated visually after about 3 weeks vs untreated controls, 100% = plants have died
How it was run: as §2

Veronica persica [31] = test: Post-emergence herbicidal efficacy at 320 g/ha, VERPE; conditions: rated visually after about 3 weeks vs untreated controls, 100% = plants have died
How it was run: as §2

Stellaria media [32] = test: Post-emergence herbicidal efficacy at 320 g/ha, STEME; conditions: rated visually after about 3 weeks vs untreated controls, 100% = plants have died
How it was run: as §2

Fc1cnc(Nc2cccc(F)c2-c2cc(C(F)F)no2)nc1 [Example 1-34]
Pre-emergence efficacy at 320 g/ha against ECHCG in % (Echinochloa crus-galli [1]): 100% | Post-emergence efficacy at 320 g/ha against DIGSA in % (Digitaria sanguinalis [2]): 100% | Post-emergence efficacy at 320 g/ha against POAAN in % (Poa annua [3]): 100% | Post-emergence efficacy at 80 g/ha against VIOTR in % (Viola tricolor [4]): 80% | Post-emergence efficacy at 80 g/ha against AMARE in % (Amaranthus retroflexus [5]): 100% | Pre-emergence efficacy against VIOTR (Viola tricolor [6]): 100% | Pre-emergence efficacy against VERPE (Veronica persica [7]): 100% | Post-emergence efficacy at 320 g/ha against SETVI in % (Setaria viridis [8]): 90% | Pre-emergence efficacy at 320 g/ha against MATIN in % (Matricaria inodora): 100% | Pre-emergence efficacy at 320 g/ha against POAAN in % (Poa annua [9]): 100% | Pre-emergence efficacy at 80 g/ha against AMARE in % (Amaranthus retroflexus [10]): 100% | Pre-emergence efficacy at 320 g/ha against ABUTH in % (Abutilon theophrasti [11]): 100% | Pre-emergence efficacy at 320 g/ha against VERPE in % (Veronica persica [12]): 100% | Post-emergence efficacy at 320 g/ha against KCHSC in % (Kochia scoparia [13]): 100% | Pre-emergence efficacy at 80 g/ha against ABUTH in % (Abutilon theophrasti [14]): 90% | Post-emergence efficacy at 80 g/ha against ALOMY in % (Alopecurus myosuroides [15]): 100% | Pre-emergence efficacy at 320 g/ha against SETVI in % (Setaria viridis [16]): 100% | Post-emergence efficacy at 320 g/ha against ECHCG in % (Echinochloa crus-galli [17]): 100% | Pre-emergence efficacy against SETVI (Setaria viridis [18]): 100% | Pre-emergence efficacy at 320 g/ha against ALOMY in % (Alopecurus myosuroides [19]): 100% | Post-emergence efficacy at 80 g/ha against DIGSA in % (Digitaria sanguinalis [20]): 80% | Pre-emergence efficacy at 80 g/ha against ALOMY in % (Alopecurus myosuroides [21]): 90% | Post-emergence efficacy at 320 g/ha against ALOMY in % (Alopecurus myosuroides [22]): 100% | Post-emergence efficacy at 80 g/ha against VERPE in % (Veronica persica [23]): 100% | Pre-emergence efficacy at 80 g/ha against POLCO in % (Polygonum convolvulus): 90% | Pre-emergence efficacy at 320 g/ha against KCHSC in % (Kochia scoparia [24]): 100% | Pre-emergence efficacy at 80 g/ha against ECHCG in % (Echinochloa crus-galli [25]): 90% | Pre-emergence efficacy at 320 g/ha against AMARE in % (Amaranthus retroflexus [26]): 100% | Pre-emergence efficacy at 320 g/ha against DIGSA in % (Digitaria sanguinalis [27]): 100% | Pre-emergence efficacy at 80 g/ha against DIGSA in % (Digitaria sanguinalis [28]): 100% | Pre-emergence efficacy at 320 g/ha against STEME in % (Stellaria media [29]): 100% | Post-emergence efficacy at 320 g/ha against AMARE in % (Amaranthus retroflexus [30]): 100% | Post-emergence efficacy at 320 g/ha against VERPE in % (Veronica persica [31]): 100% | Post-emergence efficacy at 320 g/ha against STEME in % (Stellaria media [32]): 100%
